No end group written: not given here.
Columns and labels:
HIT T-15 cells [1] = test: Amylin release from HIT T-15 cells; type: cell-based, hamster; conditions: for Effect on basal and glucose-stimulated amylin secretion (in words): same concentrations that stimulate insulin secretion (tolbutamide 100 μM; glibenclamide 0.1 and 1.0 μM), 0 and 10 mM glucose
Method: (§1) HIT T-15 cells (HIT cells; American Type Tissue Collection, Rockville, MD; R. F. Santerre, et al. (1981) Proc. Nat. Acad. Sci. USA 78, 4339-4343.) were subcultured weekly in Ham's F-12 medium (Irvine Scientific, Santa Ana, Calif.) containing 10% horse serum (Gemini Bioproducts, Calabasas, Calif.), 2.5% fetal bovine serum (FBS; Gemini), 2 mM L-glutamine, and 10.0 mM glucose. Cells were maintained at 37° C. and 5% CO2 / 95% humidified air and medium was replaced every 2 to 3 days. All experiments were performed with cells from passages 66 to 71.
(§2) Amylin and insulin secretion were measured using reagents of analytical grade unless otherwise indicated. The secretion medium was a Krebs-Ringer buffer (KRB) containing 119 mM NaCl, 4.74 mM KCl, 2,54 mM CaCl2, 1.19 mM MgSO4, 1.19 mM KH2 PO4, 25 mM NaHCO3, 10 mM HEPES and 0.1% protease-free bovine serum albumin (Cohn fraction V; Sigma Chemical Co., St. Louis Mo.) at pH 7.4. Glibenclamide (Sigma) was initially dissolved in ethanol (50 mg/ml) then diluted to working concentrations in KRB. […] Tolbutamide (Sigma) was initially dissolved in dimethylsulfoxide (50 mg/ml). […] Metformin (Sigma) was diluted in KRB.
(§3) Five days before each secretion study cells were subcultured at 0.26×10^6 cells/0.8 ml medium/well in 24-well tissue culture plates (Corning Glass Works, Corning N.Y.). Medium was replaced on day 3. On day 5 cells were washed twice with 1.0 ml KRB then incubated in 1.0 ml KRB (30 minutes, 37° C.) in equilibrium with air. Cells were washed twice more prior to addition of 0.5 ml KRB containing the indicated concentrations of glucose, metformin, tolbutamide and glibenclamide. After a 60 minute incubation with test substance or substances, supernatants were centrifuged (5 minutes, 500×g, 5° C.; GPKR centrifuge, Beckman Instruments, Inc., Palo Alto, Calif.) to remove cell debris, then stored in polypropylene micro test tubes (Brinkman Instrument Co., Westbury, N.Y.) at -20° C. until analyzed by radioimmunoassay. Supernatants were analyzed for insulin and amylin content within one week of collection. Three wells per plate were randomly selected for cell quantitation. Cells were incubated with 75 μg trypsin and 30 μg EDTA in 150 μl normal saline (8 minutes, 37° C.), then counted on a Coulter Counter (Model Zf, Coulter Electronics, Hialeah, Fla.).
(§4) Immunoreactive insulin content in supernatants was measured using a commercial radioimmunoassay (IM.78; Amersham, Arlington Heights, Ill.). […] The radioimmunoassay for immunoreactive amylin was as follows. Assay diluent was phosphate-buffered saline (PBS; 137 mM NaCl, 2.68 mM KCl, 1.47 mM KH2 PO4, 6.65 mM Na2 HPO4) containing 0.1% Triton-X 100 (v/v), 0.01% NaN3 (w/v), and 0.1% gelatin (v/v; teleostean, 45% aqueous solution, Sigma) at pH 7.4. All incubations were performed at 4° C. ^125 I-[Tyr 37]-human synthetic amylin tracer was iodinated by the chloramine-T method and purified on a C18 Sep-Pak (Waters Associates, Milford, Mass.). Specific activity was approximately 500 μCi/μg.
Standards and unknowns were run in triplicate or duplicate respectively. After an 18 hour incubation, 100 μl of tracer containing 20,000 dpm was added and samples were incubated an additional 18 hours. To ensure complete immunoprecipitation of amylin:antibody complexes, 100 μl of rabbit gamma globulin (0.35 mg/ml, Scantibodies Laboratory, Santee, Calif.) and 100 μl of goat anti-rabbit gamma globulin (0.50 mg/ml, purified grade; Scantibodies) were added. After a 15 minute incubation, 1.0 ml 2% polyethylene glycol (w/v. MW 8,000; Sigma) in assay buffer was added and samples were centrifuged (30 minutes, 1500×g, 5° C.). Samples were decanted and pellets were counted on a gamma counter (model 1277; LKB Wallac, Turku, Finland).
Data in FIGS. 3 and 4 are shown as the mean±S.D. of 4 replicate samples.

HIT T-15 cells [2] = test: Insulin release from HIT T-15 cells; type: cell-based, hamster
Method: as §1, §2, §3, §4
Data in FIGS. 3 and 4 are shown as the mean±S.D. of 4 replicate samples. An unpaired Student's t-test was used to compare secretion in the absence and presence of hypoglycemic agent (Statview 512+ program; Brain Power, Inc., Calabasas, Calif.).
as §1, with “Md.)” for “MD; R. F. Santerre, et al. (1981) Proc. Nat. Acad. Sci. USA 78, 4339-4343.)”, “L-glutamine, 10^5 IU penicillin G/1, 100 mg streptomycin/1” for “L-glutamine,”, “C02/” for “CO2 /”, “62” for “66”

[3] = tested on: amylin inhibition of insulin-stimulated muscle glycogen synthesis; test: Antagonist assay in isolated rat soleus muscle (radiolabelled glucose into glycogen, Example 6); type: cell-based; conditions: 1000 μU/mL insulin
Method: An antagonist assay was performed in vitro using the isolated soleus muscle from rats. It measured the rate of incorporation of radiolabelled glucose into muscle glycogen as follows: […] There were therefore 9 treatment groups (conditions 1,2,3 and six subgroups of condition 4). The right and left soleus muscles of 4-hour fasted rats were removed immediately after decapitation of the animals, divided in half and temporarily placed in physiological saline. Muscles were assigned to different treatment groups so that the 4 muscle pieces from each animal were evenly distributed among the 9 flasks representing the different assay conditions. […] Pharmacologically active agents were added to the 10mL of medium to result in the above stated concentrations and mixtures. […] Frozen muscle specimens were digested in 1 mL 60% potassium hydroxide at 70° C. for 45 minutes. […] The supernatant was aspirated and the glycogen washed with ethanol, aspirated and dried under vacuum. The remaining glycogen was redissolved in water and scintillation fluid and counted for ^14 C. From a knowledge of the specific activity of ^14 C-glucose in the 5.5 mM glucose of the incubation medium, and the total ^14 C counts remaining in the glycogen extracted from each muscle, the net rate of glycogen synthesis over the final 60 minute incubation period was determined. This was normalized per mass of muscle and expressed as μmoles of glucosyl units incorporated into glycogen per hour per gram of muscle. The antagonist dose/response curve was fitted to a 4-parameter logistic model using a least-squares iterative routine (ALLFIT, v2.7, NIH, MD) to derive the EC50 for disinhibition.

[4] = tested on: isolated rat islets of Langerhans; test: Glucose-stimulated insulin secretion from isolated rat islets of Langerhans; type: cell-based; conditions: glucose 10 mmol/L
Method: The following experiments illustrate the fact that subpeptides of amylin can act to reduce the amount of insulin produced by isolated islets of Langerhans in response to a standard glucose challenge. Similar results have been obtained using whole amylin. All experiments were performed by known methods used in experimental practice. See, e.g., Lacey P. E., and Kostianovsky M., Method for the Isolation of Intact Islets of Lanaerhans from the Rat Pancreas. Diabetes 1967; 16:35-39.
Briefly, rats were killed, and islets of Langerhans were isolated from their pancreases. Experiments were performed either with freshly isolated islets or after overnight incubation of islets (23 h) in standard culture medium and conditions at 37° C. Synthetic amylin peptide 27-37 or synthetic calcitonin gene related peptide (CGRP) was dissolved in a 1.0 mmol/L citric acid/sodium citrate buffer, pH 3.0, and the concentration of the amylin 27-37 was verified by quantitative amino acid analysis. See, e.g., Cooper G. J. S. et al., Proc Natl Acad Sci USA 1987; 84:8628-8632. […] Stimulation of islets was carried out at the standard stimulatory glucose concentration of 10 mmol/L.
Production of insulin is expressed as μU/islet/h. All experiments were performed with five replicates per point. The integrity of the islet response was assessed by comparing the responses after stimulation of different aliquots of islets by two and ten mmol/L glucose, respectively, and the strength of the inhibitory response was judged against that induced by 1 μg/ml (650 nmol/L) somatostatin. Somatostatin is a 14 amino acid peptide which is a known, potent inhibitor of the insulin secretory response of islet B-cells to glucose. Arimura A. Biomed res1981; 2:233-257. […] Petterson M., Ahren B., Bottcher G., Sundler F., Endocrinology 1986; 119:865-869.
The results are shown in TABLE 5 below and all results are expressed as standard error of the mean (s.e.m.). The significance of differences between the means of groups is assessed by the t-test. The result of stimulation by 10 mmol/L glucose is compared with the results of stimulation at 2 mmol/L glucose. In all other experimental conditions, the significance of the inhibitory effect is measured against the effect of 10 mmol/L glucose alone.

[5] = Intravenous amylin bolus in normal rats; type: in vivo, rat
Method: We have also shown that amylin acutely produces diabetes (fasting hyperglycemia greater than 140 mg/dL) when administered intravenously. Eight normal rats were injected with a 100 μg bolus of amylin (rat amylin, Bachem, Torrance, Calif.). An intravenous amylin bolus produced a profound hyperglycemia to diabetic levels within 15-30 minutes (usually around 200 mg/dL). This hyperglycemia persists for several hours. […] There is an increase in respiratory quotient (RQ) after amylin only when somatostatin is absent and insulin is allowed to increase in response to hyperglycemia. During somatostatin infusion (no endogenous insulin release), there is no change in RQ, indicating no change from lipid to carbohydrate fuel usage in response to amylin in the fasted animal.

[6] = 100 μg intravenous bolus, normal rats

COc1ccc(Cl)cc1C(=O)NCCc1ccc(S(=O)(=O)NC(=O)NC2CCCCC2)cc1 [glibenclamide]
Proportional increase in basal amylin secretion (HIT T-15 cells [1]; basal conditions (0 glucose)): approximately two-fold | Effect on basal and glucose-stimulated amylin secretion (in words) (HIT T-15 cells [1]): significantly increase | Proportional increase of basal insulin release (HIT T-15 cells [2]; 0 glucose): more than two-fold | Effect on basal and glucose-stimulated secretion of insulin (in words) (HIT T-15 cells [2]; 0.1 and 1.0 μM, 0 and 10 mM glucose, 60 min): significantly enhanced

CN(C)C(=N)N=C(N)N [metformin]
Effect on rates of amylin secretion (in words) (HIT T-15 cells [1]; islet β-cells (HIT), concentration range examined): does not influence | Effect on insulin secretion (in words) (HIT T-15 cells [2]; 10 and 100 μM, 0 and 10 mM glucose, 60 min): no measurable effect

CCCCNC(=O)NS(=O)(=O)c1ccc(C)cc1 [tolbutamide]
Effect on basal and glucose-stimulated amylin secretion (in words) (HIT T-15 cells [1]): significantly increase | Effect on basal and glucose-stimulated secretion of insulin (in words) (HIT T-15 cells [2]; 100 μM, 0 and 10 mM glucose, 60 min): significantly enhanced

CGRP8-37: 8-37 human CGRP (Bachem), amylin antagonist
Effect on amylin inhibition of insulin-stimulated muscle glycogen synthesis (in words) ([3]; 20 nM amylin): partly reverses | Increment in the rate of glycogen synthesis, maximum reached ([3]; 20 nM amylin, antagonist 1 nM-10 μM): about 115 % of basal | EC50 ([3]; 20 nM amylin, read-out: EC50 for disinhibition (half maximal concentration)): 1.2 nM

CGRP 27-37: subpeptide 27-37 of calcitonin gene related peptide (FVPTNVGSKAF; ends and bridges not checked; UniProt P06881 109-119, looked up, fragment)
Insulin production ([4]; substance 10 nmol/L): 36 μU/islet/hr | Relative insulin secretion inhibition (percentage by which insulin production is reduced from control) ([4]; substance 10 nmol/L): 55% | Insulin production ([4]; substance 100 nmol/L): 36 μU/islet/hr | Relative insulin secretion inhibition (percentage by which insulin production is reduced from control) ([4]; substance 100 nmol/L): 55% | Insulin production ([4]; substance 1000 nmol/L): 46 μU/islet/hr | Relative insulin secretion inhibition (percentage by which insulin production is reduced from control) ([4]; substance 1000 nmol/L): 42%

insulin: Humulin-R, 100U/mL, recombinant human insulin (Eli Lilly)
Increase in rate of glycogen synthesis ([3]; zero amylin, zero antagonist): 3.7 fold

rat amylin: rat amylin, Bachem, Torrance, Calif. (KCNTATCATQRLANFLVRSSNNLGPVLPPTNVGSNTY; ends and bridges not checked; cysteine pairing not given here; UniProt P12969 38-74, looked up)
Duration of hyperglycemia [5, 6]: several hours | Hepatic (endogenous) glucose output [5, 6]: increase | Hyperglycemia level after bolus [5, 6]: around 200 mg/dL | Peripheral glucose disposal [5, 6]: increased impediment | Plasma lactate [5, 6]: transient increase | Time to hyperglycemia at diabetic levels [5, 6]: 15 to 30 min | Respiratory quotient (RQ) ([5]; during somatostatin infusion (no endogenous insulin release)): no change | Respiratory quotient (RQ) ([5]; somatostatin absent, insulin allowed to increase): increase | Decrease of insulin-stimulated rate of glycogen synthesis ([3]; 20 nM amylin): approximately 83%

From patent US5260275A, “Hypoglycemics” (Amylin Pharmaceuticals, Inc., priority 1990, dated 1993)
